This note sets out measurements from ChEMBL document CHEMBL1138980, “Triazolo[1,5-a]pyrimidines as novel CDK2 inhibitors: protein structure-guided design and SAR” (Bioorg Med Chem Lett, 2006).

One test relates to HCT-116. Put plainly: Antiproliferative activity against HCT116 colon cancer cell line. Format: functional. Conditions: Homo sapiens.
Test [1] is described as follows: Inhibition of PDK1. On the set-up: species or system Homo sapiens.
Test [2] deals with T1, Serine/threonine-protein kinase Chk1 (Homo sapiens, UniProt O14757).
T1 sequence (O14757 whole entry): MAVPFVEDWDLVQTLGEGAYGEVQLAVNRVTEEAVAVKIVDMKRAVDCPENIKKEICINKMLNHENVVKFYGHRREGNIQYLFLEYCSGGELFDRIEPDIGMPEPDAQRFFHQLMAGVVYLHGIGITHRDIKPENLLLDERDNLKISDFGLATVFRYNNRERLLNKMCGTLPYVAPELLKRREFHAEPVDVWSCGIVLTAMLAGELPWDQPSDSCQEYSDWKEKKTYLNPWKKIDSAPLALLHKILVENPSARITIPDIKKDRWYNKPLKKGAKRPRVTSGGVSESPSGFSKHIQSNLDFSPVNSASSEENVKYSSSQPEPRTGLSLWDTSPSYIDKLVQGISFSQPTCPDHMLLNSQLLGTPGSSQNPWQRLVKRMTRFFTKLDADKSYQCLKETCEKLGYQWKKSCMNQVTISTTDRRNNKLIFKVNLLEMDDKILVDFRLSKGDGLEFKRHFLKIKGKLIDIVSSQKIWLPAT
The test is described as follows: Inhibition of Chk1.

Test [3] addresses Cyclin-dependent kinase 2 (Homo sapiens, UniProt P24941). Put plainly: Inhibition of CDK2 using 100 uM ATP.
In test [4] the target is Cyclin-dependent kinase 1 (Homo sapiens, UniProt P06493). Put plainly: Inhibition of CDK1 using 100 uM ATP.
Sequence of Cyclin-dependent kinase 1 (P06493 whole entry): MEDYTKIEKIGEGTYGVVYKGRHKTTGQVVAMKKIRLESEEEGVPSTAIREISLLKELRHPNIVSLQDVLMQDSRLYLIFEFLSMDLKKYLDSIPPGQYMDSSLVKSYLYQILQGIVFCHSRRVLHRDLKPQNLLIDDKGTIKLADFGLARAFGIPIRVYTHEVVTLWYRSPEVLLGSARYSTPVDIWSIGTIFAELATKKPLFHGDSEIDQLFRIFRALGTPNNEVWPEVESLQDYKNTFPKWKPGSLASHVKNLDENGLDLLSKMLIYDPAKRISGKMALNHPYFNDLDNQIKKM
In test [5] the target is Glycogen synthase kinase-3 beta (Homo sapiens, UniProt P49841). The test is described as follows: Inhibition of GSK3-beta using 10 uM ATP.
Sequence of Glycogen synthase kinase-3 beta (P49841 whole entry): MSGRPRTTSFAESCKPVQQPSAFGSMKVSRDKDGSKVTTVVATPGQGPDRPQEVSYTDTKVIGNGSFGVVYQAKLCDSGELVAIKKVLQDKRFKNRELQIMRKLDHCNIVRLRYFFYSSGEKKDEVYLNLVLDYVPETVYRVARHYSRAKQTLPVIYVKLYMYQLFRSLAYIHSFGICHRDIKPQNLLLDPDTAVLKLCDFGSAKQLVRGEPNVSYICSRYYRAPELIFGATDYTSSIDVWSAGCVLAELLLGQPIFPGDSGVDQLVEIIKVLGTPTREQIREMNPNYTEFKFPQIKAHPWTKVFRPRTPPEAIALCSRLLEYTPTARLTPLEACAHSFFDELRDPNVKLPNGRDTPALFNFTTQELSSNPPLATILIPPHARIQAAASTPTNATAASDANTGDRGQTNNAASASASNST

pIC50: −log10 of the molar value. Where only a bound is given, the exact number is not on record here.

In the test on HCT-116, `CN(C)S(=O)(=O)c1ccc(Nc2cc(N[C@H]3CC[C@H](N)CC3)nc3ncnn23)cc1` came in with a GI50 greater than 80 µM. For the same compound, the negative logarithm of the IC50 (pIC50) was less than 3.70 in test [1]; 4.68 in test [2]; 6.92 in test [3]; 5.25 in test [4]; 4.70 in test [5].

In turn, `NS(=O)(=O)c1ccc(Nc2cc(OC3CCCCC3)nc3ncnn23)cc1` returned a GI50 in the test on HCT-116 of 25 µM. In addition, the negative logarithm of the IC50 (pIC50) in test [4] was 6.85; in test [5], 6.72.

In the test with HCT-116, `NS(=O)(=O)c1ccc(Nc2cc(NC3CCCCC3)nc3ncnn23)cc1` yielded a 50% growth inhibitory concentration (GI50) of 31 µM. In test [5], this compound gave a pIC50 of 6.01.

In the test with HCT-116, `CCN(CC)c1cc(Nc2ccc(S(N)(=O)=O)cc2)n2ncnc2n1` returned a GI50 of 23 µM. Further, the pIC50 is 6.40 in test [3], 5.47 in test [4] and 4.96 in test [5].

For `NS(=O)(=O)c1ccc(Nc2cc(N[C@H]3CC[C@H](O)CC3)nc3ncnn23)cc1`, the GI50 in the test with HCT-116 was found to be 39 µM. In other words, the double-digit micromolar range.

In turn, `Brc1cccc(-c2cc(NCc3ccncc3)n3nccc3n2)c1` had a 50% growth inhibitory concentration (GI50) in the test on HCT-116 of 8 µM. This GI50 is about 4.9-fold lower than that of the compound before.

In turn, `NS(=O)(=O)c1ccc(Nc2cc(OCC3CCCCC3)nc3ncnn23)cc1` gave a pIC50 in test [5] of 4.54.

`CS(=O)(=O)c1ccc(Nc2cc(N[C@H]3CC[C@H](N)CC3)nc3ncnn23)cc1` had a GI50 with HCT-116 greater than 80 µM. For the same compound, the pIC50 in test [4] was 4.80; in test [5] it was 4.37.

On to `NS(=O)(=O)c1ccc(Nc2nc(OCC3CCCCC3)c3nc[nH]c3n2)cc1`, for which the negative-log IC50 (pIC50) in test [1] was greater than 6.30; in test [2], greater than 6.30; in test [5], 7.40.

`NS(=O)(=O)c1ccc(Nc2cc(N[C@H]3CC[C@H](N)CC3)nc3ncnn23)cc1`: in the test with HCT-116, the 50% growth inhibitory concentration (GI50) is greater than 80 µM. The negative logarithm of the IC50 (pIC50) in test [1] was 4.37; in test [5] it was 6.11.

`N[C@H]1CC[C@H](Nc2cc(Nc3ccc(S(=O)(=O)c4ccccc4)cc3)n3ncnc3n2)CC1` had a GI50 with HCT-116 greater than 80 µM. The negative logarithm of the IC50 (pIC50) in test [4] was 5.37; in test [5] it was 4.30.

In general, GI50 refers to the concentration at which growth is held to half of that of the control. Broadly, the pIC50 is the negative decadic logarithm of the IC50, by convention in mol/L.
